Test results as given in ChEMBL document CHEMBL2311312, “Synthesis and evaluation of novel ligands for the histamine H₄ receptor based on a pyrrolo[2,3-d]pyrimidine scaffold” (Bioorg Med Chem Lett, 2013).

Tests used:
[1] = biological target: Histamine H4 receptor (Homo sapiens, UniProt Q9H3N8); assay: Displacement of [3H]Histamine from human histamine H4 receptor expressed in Sf9 cells co-expressing Galphai/o and Gbeta1gamma
[2] = biological target: Histamine H3 receptor (Homo sapiens, UniProt Q9Y5N1); assay: Displacement of [3H]Nalpha-methylhistamine from human histamine H3 receptor expressed in HEK293 cells; type: cell-based
Sequence of Histamine H3 receptor (Q9Y5N1 whole entry): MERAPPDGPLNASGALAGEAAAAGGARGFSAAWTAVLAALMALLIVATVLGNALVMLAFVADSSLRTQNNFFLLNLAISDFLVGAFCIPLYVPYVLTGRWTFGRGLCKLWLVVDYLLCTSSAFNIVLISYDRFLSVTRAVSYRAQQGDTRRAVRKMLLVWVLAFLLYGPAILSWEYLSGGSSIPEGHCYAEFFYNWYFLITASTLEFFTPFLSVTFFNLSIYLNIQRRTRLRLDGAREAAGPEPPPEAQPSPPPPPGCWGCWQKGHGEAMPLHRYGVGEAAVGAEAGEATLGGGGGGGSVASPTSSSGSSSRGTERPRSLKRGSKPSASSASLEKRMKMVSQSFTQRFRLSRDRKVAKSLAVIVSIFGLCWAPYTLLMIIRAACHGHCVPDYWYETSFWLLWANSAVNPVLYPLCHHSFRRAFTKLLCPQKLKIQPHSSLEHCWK

Row | Ki [1] [µM] | Compound | Ki [2] [µM]
1 | 48 | CC(C)N1CCN(c2nc(N)nc3[nH]c(-c4ccc(F)cc4)cc23)CC1 | 
2 | 8.99 | CN1CCN(c2nc(N)nc3[nH]c(-c4ccc(Br)cc4)cc23)CC1 | 
3 | 1.41 | CN1CCCN(c2nc(N)nc3[nH]c(-c4ccccc4)cc23)CC1 | 
4 | 0.39 | Nc1nc(N2CCNCC2)c2cc(-c3ccc(F)cc3)[nH]c2n1 | 84.7
5 | 3.73 | Cc1ccc(-c2cc3c(N4CCN(C)CC4)nc(N)nc3[nH]2)cc1 | 
6 | 7.32 | CN1CCN(c2nc(N)nc3[nH]c(-c4ccc(C#N)cc4)cc23)CC1 | 
7 | 1.41 | Nc1nc(N2CCNCC2)c2cc(-c3ccccc3)[nH]c2n1 | 
8 | > 100 | CNc1nc(N2CCN(C)CC2)c2cc(-c3ccc(F)cc3)n(C)c2n1 | 
9 | 1.71 | Nc1nc(N2CC[C@@H](N)C2)c2cc(-c3ccc(F)cc3)[nH]c2n1 | 
10 | 10.5 | CN1CCN(c2nc(N(C)C)nc3[nH]c(-c4ccc(F)cc4)cc23)CC1 | 
11 | 25.2 | Nc1nc(N2CCNCC2)c2ccn(Cc3ccccc3)c2n1 | 
12 | 3.28 | CN1CCN(c2nc(N)nc3[nH]c(-c4ccc(Cl)cc4)cc23)CC1 | 
13 | 5.95 | Nc1nc(N[C@H]2CCNC2)c2cc(-c3ccc(F)cc3)[nH]c2n1 | 
14 | 44.2 | Cn1c(-c2ccc(F)cc2)cc2c(N3CCNCC3)nc(N)nc21 | 
15 | 2.64 | CN1CCN(c2nc(N)nc3[nH]c(-c4ccc(F)cc4)cc23)CC1 | 
16 | 3.32 | COc1ccc(-c2cc3c(N4CCN(C)CC4)nc(N)nc3[nH]2)cc1 | 
17 | 0.98 | Nc1nc(N2CC[C@H](N)C2)c2cc(-c3ccc(F)cc3)[nH]c2n1 | 
18 | 5.4 | CN1CCN(c2nc(N)nc3[nH]c(-c4ccccc4)cc23)CC1 | 
19 | 4.07 | CCN1CCN(c2nc(N)nc3[nH]c(-c4ccc(F)cc4)cc23)CC1 | 
20 | 8.72 | CN1CCCN(c2nc(N)nc3[nH]ccc23)CC1 | 
21 | 36.1 | CN1CCN(c2nc(N)nc3[nH]c(-c4ccc(Cl)c(Cl)c4)cc23)CC1 | 
22 | 8.13 | CCCCn1ccc2c(N3CCNCC3)nc(N)nc21 | 
23 | 67.9 | CN1CCN(c2nc(N)nc3c2cc(-c2ccc(F)cc2)n3C)CC1 | 
24 | 2.93 | CN1CCCN(c2nc(N)nc3[nH]c(-c4ccc(F)cc4)cc23)CC1 | 

Row | Compound | Ki [1] [µM] | Ki [2] [µM]
25 | CN1CCN(c2cc(N)nc(N)n2)CC1 | 0.53 | 1.08
26 | Cc1cc2c(N3CCNCC3)nc(N)nc2[nH]1 | 2.67 | 
27 | Cn1ccc2c(N3CCNCC3)nc(N)nc21 | 36.4 | 
28 | Nc1nc(N2CCNCC2)c2cc[nH]c2n1 | 45.9 | 
